Laboratory results reported in US11759462B2, “Spirocyclic compounds as tryptophan hydroxylase inhibitors” (priority 2013, dated 2023).

The molecules below were run against T1, Recombinant human TPH1 (MBP tagged) (Homo sapiens, UniProt P17752) (assay: TPH1 in vitro inhibition assay (kinetic fluorescence)). Details: read-out: TPH1 Range (TPH1 inhibition IC50).
T1 construct: cloning full length human TPH1 cDNA in to a bacterial pMAL-c5E expression vector; made in house; host or cells: E. coli BL21 (DE3)
T1 sequence (P17752 1-444): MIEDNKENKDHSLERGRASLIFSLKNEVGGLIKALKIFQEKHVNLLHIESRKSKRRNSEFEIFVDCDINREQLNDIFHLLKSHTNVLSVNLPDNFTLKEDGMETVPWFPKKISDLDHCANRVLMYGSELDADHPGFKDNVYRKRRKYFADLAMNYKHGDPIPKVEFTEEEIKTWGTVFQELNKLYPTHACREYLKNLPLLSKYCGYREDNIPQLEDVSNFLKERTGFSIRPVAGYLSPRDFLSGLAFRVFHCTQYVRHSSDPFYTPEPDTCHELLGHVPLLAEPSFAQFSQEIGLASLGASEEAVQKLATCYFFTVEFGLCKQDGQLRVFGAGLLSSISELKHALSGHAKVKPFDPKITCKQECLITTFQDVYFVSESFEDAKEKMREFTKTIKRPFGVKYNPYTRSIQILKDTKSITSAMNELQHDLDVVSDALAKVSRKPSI
Assay type: biochemical
How it was run: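 Final mix: 15 nM MBP-TPH1, 30 μM Trp, 36 μM 6-methyltetrahydropterin, 25 μM ferrous ammonium sulfate, 50 mM MES pH 7.1, 1% DMSO, room temperature.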

IC50, < 50 nM:
CCOc1ccc(-c2ccc([C@@H](Oc3cc(N4CCC5(CC4)CN[C@H](C(=O)O)C5)nc(N)n3)C(F)(F)F)cc2)cc1 [Example 55do, (S)-8-(2-amino-6-((R)-1-(4′-ethoxy-[1,1′-biphenyl]-4-yl)-2,2,2-trifluoroethoxy)pyrimidin-4-yl)-2,8-diazaspiro[4.5]decane-3-carboxylic acid]
Nc1nc(O[C@H](c2ccc(-c3ccc4nnccc4c3)cc2)C(F)(F)F)cc(N2CCC3(CC2)CN[C@H](C(=O)O)C3)n1 [Example 55dp, (S)-8-(2-amino-6-((R)-1-(4-(cinnolin-6-yl)phenyl)-2,2,2-trifluoroethoxy)pyrimidin-4-yl)-2,8-diazaspiro[4.5]decane-3-carboxylic acid]
Nc1nc(O[C@H](c2ccc(-c3ccc4c(c3)CCCO4)cc2)C(F)(F)F)cc(N2CCC3(CC2)CN[C@H](C(=O)O)C3)n1 [Example 55dq, (S)-8-(2-amino-6-((R)-1-(4-(chroman-6-yl)phenyl)-2,2,2-trifluoroethoxy)pyrimidin-4-yl)-2,8-diazaspiro[4.5]decane-3-carboxylic acid]
Cn1ncc2ccc(-c3ccc([C@@H](Oc4cc(N5CCC6(CC5)CN[C@H](C(=O)O)C6)nc(N)n4)C(F)(F)F)cc3)cc21 [Example 55i, (S)-8-(2-amino-6-((R)-2,2,2-trifluoro-1-(4-(1-methyl-1H-indazol-6-yl)phenyl)ethoxy)pyrimidin-4-yl)-2,8-diazaspiro[4.5]decane-3-carboxylic acid]
Nc1nc(O[C@H](c2ccc(-c3ccc4ccccc4c3)cc2)C(F)(F)F)cc(N2CCC3(CC2)CN[C@H](C(=O)O)C3)n1 [Example 55m, (S)-8-(2-amino-6-((R)-2,2,2-trifluoro-1-(4-(naphthalen-2-yl)phenyl)ethoxy)pyrimidin-4-yl)-2,8-diazaspiro[4.5]decane-3-carboxylic acid]
COc1ccc(-c2ccc([C@@H](Oc3cc(N4CCC5(CC4)CN[C@H](C(=O)O)C5)nc(N)n3)C(F)(F)F)cc2)cc1OC [Example 55q, (S)-8-(2-amino-6-((R)-1-(3′,4′-dimethoxy-[1,1′-biphenyl]-4-yl)-2,2,2-trifluoroethoxy)pyrimidin-4-yl)-2,8-diazaspiro[4.5]decane-3-carboxylic acid]
Nc1nc(O[C@H](c2ccc(-c3ccc4c(c3)COC4=O)cc2)C(F)(F)F)cc(N2CCC3(CC2)CN[C@H](C(=O)O)C3)n1 [Example 55s, (S)-8-(2-amino-6-((R)-2,2,2-trifluoro-1-(4-(1-oxo-1,3-dihydroisobenzofuran-5-yl)phenyl)ethoxy)pyrimidin-4-yl)-2,8-diazaspiro[4.5]decane-3-carboxylic acid]

IC50, 300 to 3000 nM:
Nc1nc(O[C@H](c2ccc(-c3ccc4cnoc4c3)cc2)C(F)(F)F)cc(N2CCC3(CC2)CN[C@H](C(=O)O)C3)n1 [Example 55g, (S)-8-(2-amino-6-((R)-1-(4-(benzo[d]isoxazol-6-yl)phenyl)-2,2,2-trifluoroethoxy)pyrimidin-4-yl)-2,8-diazaspiro[4.5]decane-3-carboxylic acid]
COc1cc(-c2ccc([C@@H](Oc3cc(N4CCC5(CC4)CN[C@H](C(=O)O)C5)nc(N)n3)C(F)(F)F)cc2)ccc1C [Example 55n, (S)-8-(2-amino-6-((R)-2,2,2-trifluoro-1-(3′-methoxy-4′-methyl-[1,1′-biphenyl]-4-yl)ethoxy)pyrimidin-4-yl)-2,8-diazaspiro[4.5]decane-3-carboxylic acid]

IC50, 50 to 300 nM:
Nc1nc(O[C@H](c2ccc(-c3ccc(C(=O)NCCN4CCOCC4)cc3)cc2)C(F)(F)F)cc(N2CCC3(CC2)CN[C@H](C(=O)O)C3)n1 [Example 55dh, (S)-8-(2-amino-6-((R)-2,2,2-trifluoro-1-(4′-((2-morpholinoethyl)carbamoyl)-[1,1′-biphenyl]-4-yl)ethoxy)pyrimidin-4-yl)-2,8-diazaspiro[4.5]decane-3-carboxylic acid]
CS(=O)(=O)c1ccc(-c2ccc([C@@H](Oc3cc(N4CCC5(CC4)CN[C@H](C(=O)O)C5)nc(N)n3)C(F)(F)F)cc2)cc1 [Example 55di, (S)-8-(2-amino-6-((R)-2,2,2-trifluoro-1-(4′-(methylsulfonyl)-[1,1′-biphenyl]-4-yl)ethoxy)pyrimidin-4-yl)-2,8-diazaspiro[4.5]decane-3-carboxylic acid]
Nc1nc(O[C@H](c2ccc(-c3ccc(S(N)(=O)=O)cc3)cc2)C(F)(F)F)cc(N2CCC3(CC2)CN[C@H](C(=O)O)C3)n1 [Example 55dj, (S)-8-(2-amino-6-((R)-2,2,2-trifluoro-1-(4′-sulfamoyl-[1,1′-biphenyl]-4-yl)ethoxy)pyrimidin-4-yl)-2,8-diazaspiro[4.5]decane-3-carboxylic acid]
Nc1nc(O[C@H](c2ccc(-c3ccc(C(=O)N4CCNCC4)cc3)cc2)C(F)(F)F)cc(N2CCC3(CC2)CN[C@H](C(=O)O)C3)n1 [Example 55dl, (S)-8-(2-amino-6-((R)-2,2,2-trifluoro-1-(4′-(piperazine-1-carbonyl)-[1,1′-biphenyl]-4-yl)ethoxy)pyrimidin-4-yl)-2,8-diazaspiro[4.5]decane-3-carboxylic acid]
CCCOc1ccc(-c2ccc([C@@H](Oc3cc(N4CCC5(CC4)CN[C@H](C(=O)O)C5)nc(N)n3)C(F)(F)F)cc2)cc1F [Example 55dm, (S)-8-(2-amino-6-((R)-2,2,2-trifluoro-1-(3′-fluoro-4′-propoxy-[1,1′-biphenyl]-4-yl)ethoxy)pyrimidin-4-yl)-2,8-diazaspiro[4.5]decane-3-carboxylic acid]
CCOc1ccc(-c2ccc([C@@H](Oc3cc(N4CCC5(CC4)CN[C@H](C(=O)O)C5)nc(N)n3)C(F)(F)F)cc2)cc1F [Example 55dn, (S)-8-(2-amino-6-((R)-1-(4′-ethoxy-3′-fluoro-[1,1′-biphenyl]-4-yl)-2,2,2-trifluoroethoxy)pyrimidin-4-yl)-2,8-diazaspiro[4.5]decane-3-carboxylic acid]
COc1ccc(-c2ccc([C@@H](Oc3cc(N4CCC5(CC4)CN[C@H](C(=O)O)C5)nc(N)n3)C(F)(F)F)cc2)cc1F [Example 55e, (S)-8-(2-amino-6-((R)-2,2,2-trifluoro-1-(3′-fluoro-4′-methoxy-[1,1′-biphenyl]-4-yl)ethoxy)pyrimidin-4-yl)-2,8-diazaspiro[4.5]decane-3-carboxylic acid]
Nc1nc(O[C@H](c2ccc(-c3ccc4cnsc4c3)cc2)C(F)(F)F)cc(N2CCC3(CC2)CN[C@H](C(=O)O)C3)n1 [Example 55f, (S)-8-(2-amino-6-((R)-1-(4-(benzo[d]isothiazol-6-yl)phenyl)-2,2,2-trifluoroethoxy)pyrimidin-4-yl)-2,8-diazaspiro[4.5]decane-3-carboxylic acid]
Nc1nc(O[C@H](c2ccc(-c3ccc4cn[nH]c4c3)cc2)C(F)(F)F)cc(N2CCC3(CC2)CN[C@H](C(=O)O)C3)n1 [Example 55h, (S)-8-(6-((R)-1-(4-(1H-indazol-6-yl)phenyl)-2,2,2-trifluoroethoxy)-2-aminopyrimidin-4-yl)-2,8-diazaspiro[4.5]decane-3-carboxylic acid]
Nc1nc(O[C@H](c2ccc(-c3ccc4sncc4c3)cc2)C(F)(F)F)cc(N2CCC3(CC2)CN[C@H](C(=O)O)C3)n1 [Example 55j, (S)-8-(2-amino-6-((R)-1-(4-(benzo[d]isothiazol-5-yl)phenyl)-2,2,2-trifluoroethoxy)pyrimidin-4-yl)-2,8-diazaspiro[4.5]decane-3-carboxylic acid]
Nc1nc(O[C@H](c2ccc(-c3ccc4ncnn4c3)cc2)C(F)(F)F)cc(N2CCC3(CC2)CN[C@H](C(=O)O)C3)n1 [Example 55l, (S)-8-(6-((R)-1-(4-([1,2,4]triazolo[1,5-a]pyridin-6-yl)phenyl)-2,2,2-trifluoroethoxy)-2-aminopyrimidin-4-yl)-2,8-diazaspiro[4.5]decane-3-carboxylic acid]
COc1cc(C)cc(-c2ccc([C@@H](Oc3cc(N4CCC5(CC4)CN[C@H](C(=O)O)C5)nc(N)n3)C(F)(F)F)cc2)c1 [Example 55o, (S)-8-(2-amino-6-((R)-2,2,2-trifluoro-1-(3′-methoxy-5′-methyl-[1,1′-biphenyl]-4-yl)ethoxy)pyrimidin-4-yl)-2,8-diazaspiro[4.5]decane-3-carboxylic acid]
COc1ccc(C)c(-c2ccc([C@@H](Oc3cc(N4CCC5(CC4)CN[C@H](C(=O)O)C5)nc(N)n3)C(F)(F)F)cc2)c1 [Example 55p, (S)-8-(2-amino-6-((R)-2,2,2-trifluoro-1-(5′-methoxy-2′-methyl-[1,1′-biphenyl]-4-yl)ethoxy)pyrimidin-4-yl)-2,8-diazaspiro[4.5]decane-3-carboxylic acid]
COc1cc(-c2ccc([C@@H](Oc3cc(N4CCC5(CC4)CN[C@H](C(=O)O)C5)nc(N)n3)C(F)(F)F)cc2)ccc1C(=O)N1CCCC1 [Example 55r, (S)-8-(2-amino-6-((R)-2,2,2-trifluoro-1-(3′-methoxy-4′-(pyrrolidine-1-carbonyl)-[1,1′-biphenyl]-4-yl)ethoxy)pyrimidin-4-yl)-2,8-diazaspiro[4.5]decane-3-carboxylic acid]
